Drawing on PubChem BioAssay (NCI), this text covers TGI for 2 compounds.

Molecules are shown by their SMILES.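 In this assay, cells in 96-well plates receive the compound at five concentrations for 48 hours. Endpoints are linearly interpolated between the surrounding concentrations. TGI denotes the concentration required for complete inhibition of growth.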

For the test, the system named is P388/ADR leukemia. Nature of the test: NCI tumour cell line growth inhibition, 48 h.

`Nc1ccc2c(c1)CN1C(=O)c3ccccc3C1=N2` returned a TGI greater than 125000 nM.

`COc1cc(C2c3cc4c(cc3[C@@H](Nc3cccc(O)c3)C3COC(=O)[C@H]23)OCO4)cc(OC)c1O` (some centres not stated) registered a TGI of 1650 nM.
